Source: US20100075370A1, “METHOD FOR DETERMINATION OF CELL VIABILITY BY USING FLOW CYTOMETRY WITH FIXED VOLUME ACQUISITION” (TUMORTEC GMBH, priority 2006, published 2010)

Tested on: Peripheral blood mononuclear cells (pBMC) from a patient with chronic lymphatic leukaemia
Experiment: Cytotoxicity of fludarabine phosphate on mononuclear cells, flow cytometry with fixed volume acquisition (PI exclusion)
Assay type: cell-based, human
Conditions: 96 h; for relative cell survival: 100% = without fludarabine phosphate
Description: The peripheral blood mononuclear cells (pBMC) used in the examples were isolated from peripheral blood samples as described before (Staib, P. et al., Br. J. Haematol., 128(6):783-91 (2005)). The necessary peripheral blood (PB) samples from adult patients diagnosed with chronic lymphatic leukaemia (CLL) were collected into heparin during routine diagnosis prior to administration of chemotherapy.
Plate precoating with different amounts of fludarabine phosphate: 50 μl/well of an aqueous fludarabine phosphate solution were given in a 96-well microtiter plate (Greiner BioOne, Frickenhausen, Germany). Four different fludarabine phosphate concentrations (25; 8.33; 2.78; 0.93 μg/ml) were used. The control wells were kept empty. The plates were placed into an exsiccator and dried under vacuum for 8 h.
Peripheral blood mononuclear cells (pBMC) from a patient with chronic lymphatic leukaemia were isolated from the PB samples as described before (Staib, P. et al., Br. J. Haematol., 128(6):783-91 (2005)), resuspended in RPMI 1640 medium (Biochrom, Berlin, Germany) containing 20 vol. % fetal calf serum (FCS; Biochrom, Berlin, Germany) and added into the precoated 96-well plate with a final cell concentration of 10,000 cells/well and a volume of 100 μl. The plates were then agitated for 15 min in order to solubilize the dried fludarabine phosphate. Subsequently, the plates were incubated for 96 h (37° C., 5% CO2, humidified atmosphere). Thereafter, 50 μl of an 11 μM propidium iodide (PI)-solution in 0.9% aqueous NaCl solution (NaCl 0.9%) (Invitrogen, Leiden, Netherlands) were added and incubated for 15 min at room temperature. PI is a standard flow cytometric viability probe and is used to distinguish viable from nonviable cells. Viable cells with intact membranes exclude PI, whereas the membranes of dead and damaged cells are permeable to PI. PI only stains cells with compromised cell membrane, whilst live cells which have intact membranes are not stained by PI.
The plates were then analyzed using a FACSArray (BD Biosciences, San Jose, Calif., USA) flow cytometer. The following instrument settings were used:
2.0 μl/s sample flow rate
20 μl sample volume (n. b.: this is no absolute amount, but the set value of the instrument. Thus, the actual volume aspirated and analyzed by the instrument may be higher or lower than 20 μl: however, this actual volume is invariant from sample to sample during the analysis.)
500,000 maximum events (i.e. the number of maximum events exceeds the actual cell number in the sample considerably)
An identical fixed volume (preset sample volume on instrument: 20 μl) was aspirated from each sample and the absolute amount of living cells was counted. Living cells were defined as events with cellular light scatter characteristics and being negative for PI.
After switch-on and before analyzing a new kind of sample the flow cytometer must be re-calibrated. […] In addition cut-off values can be defined. Signals below this cut-off will be excluded from data acquisition. All cells with signal intensities above the cut-off are counted. The rectangle shown in FIG. 1 defines an area of signal intensities (FSC signal and PI signal) that is suitable for counting viable cells. All cells within this rectangle are counted.

[1] = 12.50 μg/ml final concentration

`Nc1nc(F)nc2c1ncn2[C@@H]1O[C@H](COP(=O)(O)O)[C@@H](O)[C@@H]1O` [Fludarabine phosphate, 2-Fluoro-9-(5-O-phosphono-β-D-arabinofuranosyl)-9H-purin-6-amine] was tested, and the “Total living cells counted in the fixed volume” value (“Total living cells counted” for short) (0.46 μg/ml final concentration) was 1,725, the relative cell survival (0.46 μg/ml final concentration) was 41% and the “Total living cells counted” value (1.39 μg/ml final concentration) was 758. The relative cell survival (1.39 μg/ml final concentration) was 18%, the “Total living cells counted” value (4.17 μg/ml final concentration) was 347 and the relative cell survival (4.17 μg/ml final concentration) was 8%. The “Total living cells counted” value [1] was 186, the relative cell survival [1] was 4% and the relative cell survival (12.50 μg/ml final concentration, listed as fludarabine phosphate) was 4%.
